Measured values from patent publication US4716172A, “4-substituted octahydroquinolizine analgesic compounds and octahydroquinolizinium intermediates” (McNeilab, Inc., priority 1986, dated 1987).
Where two headings read alike, the source gives them in different places.

Test system: acetylcholine-bromide-induced abdominal constriction (writhing)
Assay: Mouse Acetylcholine-Bromide-Induced Abdominal Constriction Assay
Assay type: in vivo
Details: for ED50: po, read-out: ED50 (dose which inhibits writhing by 50%)
Procedure: Mouse Acetylcholine-Bromide-Induced Abdominal Constriction Assay:
The mouse acetylcholine-induced abdominal constriction assay, as described by Collier et al. in Brit. J. Pharmacol. Chem. Ther., 32:295-310, 1968, with minor modifications was the test used to assess analgesic potency. The test drugs or appropriate vehicle were administered orally (p.o.) and 30 minutes later the animals received an intraperitoneal (i.p.) injection of 5.5 mg/kg acetylcholine bromide (Matheson, Coleman and Bell, East Rutherford, NJ). The mice were then placed in groups of four into glass bell jars and observed for a ten minute observation period for the occurrence of a writhe (defined as a wave of constriction and elongation passing caudally along the abdominal wall, accompanied by a twisting of the trunk and followed by extension of the hind limbs). The percent inhibition of writhing (equated to % analgesia) was calculated as follows: The % inhibition of writhing, i.e., % analgesia, is equal to the difference between the No. of control animals writhing and the No. of drug-treated animals writhing times 100 divided by the No. of control animals writhing.
At least 20 animals were used for control and in each of the drug treated groups. Four doses were used to determine each dose response curve and ED50 (that does which inhibits writhing by 50%). The ED50 values and their 95% fiducial limits were determined by a computer assisted probit analysis.

Row | SMILES | ED50 (Mus musculus) [mg/kg] | other results
1 | Clc1cccc(Cl)c1[C@@H]1CCC[C@@H]2CCCCN21.[O-][Cl+3]([O-])([O-])O (relative stereo) [Example 1e, trans-4-(2,6-dichlorophenyl)octahydro-2H-quinolizine perchlorate] | 5 | –
2 | Cl.c1ccc(Oc2ccc([C@@H]3CCC[C@@H]4CCCCN43)cc2)cc1 (relative stereo) [Example 2e, trans-Octahydro-4-(4-phenoxyphenyl)-2H-quinolizine Hydrochloride] | – | ED50 (mouse, p.o., 30 minutes before i.p. 5.5 mg/kg acetylcholine bromide, ten minute observation): 8 mg/kg
3 | Cl.Ic1ccccc1[C@@H]1CCC[C@@H]2CCCCN21 (relative stereo) [Example 4e, trans-Octahydro-4-(2-iodophenyl)-2H-quinolizine Hydrochloride] | 30 | –
4 | Brc1ccccc1[C@@H]1CCC[C@@H]2CCCCN21.Cl (relative stereo) [Example 5e, trans-4(2-Bromophenyl)octahydro-2H-quinolizine Hydrochloride] | 23 | –
5 | COc1cccc([C@@H]2CCC[C@@H]3CCCCN32)c1.Cl (relative stereo) [Example 3e, trans-Octahydro-4-(3-methoxyphenyl)-2H-quinolizine Hydrochloride] | – | % inhibition of writhing (% analgesia), printed in ED50 column (mouse, p.o., at 30 mg/Kg, 30 minutes before i.p. 5.5 mg/kg acetylcholine bromide, ten minute observation): 40%
